Publication PMC12735951, “A Bioorthogonal TCO–Tetrazine-Based Pretargeted PET/NIRF Platform Enabling High-Contrast Tumor Imaging” (Pharmaceuticals, 2025)

Legend:
U87MG xenograft = experiment: In vivo NIR fluorescence imaging, U87MG xenograft-bearing nude mice
Method: (§1) To evaluate the tumor-targeting characteristics of DZ-TCO derivatives, DZ-1-TCO, DZ-Lys-TCO, and DZ-Lys-PEG4-TCO were administered to HeLa and U87MG xenograft-bearing nude mice (100 μL of 50 μM, n = 3 per group). In vivo fluorescence imaging was conducted at 4, 24, 48, 72, and 96 h after TCO compound injection.
(§2) Female BALB/c nude mice (4–6 weeks old; 14–20 g), obtained from Beijing Vital River Laboratory Animal Technology Co., Ltd. (Beijing, China), were subcutaneously inoculated with 5 × 10^6 HeLa or U87MG cells suspended in 100 μL PBS into the right flank. Tumor growth was monitored every 2–3 days using digital calipers, and experiments were initiated when tumor volumes reached approximately 150–300 mm^3, calculated using the formula Volume = (length × width^2)/2.
(§3) To assess the tumor-targeting capability and clearance kinetics of DZ-TCO precursors, 100 µL of each compound ([…] in PBS) was administered intravenously via the tail vein. Whole-body fluorescence imaging was performed at predetermined time points (4, 24, 48, 72, and 96 h post-injection) using the IVIS Spectrum imaging system (PerkinElmer, Shelton, CT, USA) (excitation/emission, 745/820 nm) with automatic subtraction of background fluorescence during the acquisition. Fluorescence signals were acquired under standardized exposure settings, and region-of-interest (ROI) analysis was conducted using Living Image software version 4.4 (PerkinElmer) to quantify fluorescence intensity in the tumor and major organs.

HeLa xenograft = experiment: In vivo NIR fluorescence imaging, HeLa xenograft-bearing nude mice
Method: as §1, §2, §3

HeLa and U87MG xenograft = experiment: In vivo NIR fluorescence imaging, results not split by tumor model (organs, tumor-to-background ratios, retention); set-up: species or system mice; settings: for time of peak tumor fluorescence signal / tumor fluorescence signal remained detectable (time post-injection): post-injection
Method: as §1, §2
as §3, with “([…])” for “(4, 24, 48, 72, and 96 h post-injection)”

| tumor fluorescence intensity (U87MG xenograft; 4 h post-injection) | tumor fluorescence intensity (U87MG xenograft; 24 h post-injection) | tumor fluorescence intensity (U87MG xenograft; 48 h post-injection) | tumor fluorescence intensity (HeLa xenograft; 4 h post-injection) | tumor fluorescence intensity (HeLa xenograft; 24 h post-injection) | tumor fluorescence intensity (HeLa xenograft; 48 h post-injection) | tumor-to-background fluorescence ratio (HeLa and U87MG xenograft; 4 h) | tumor-to-background fluorescence ratio (HeLa and U87MG xenograft; 48 h) | time of peak tumor fluorescence signal (HeLa and U87MG xenograft) [h] | tumor fluorescence signal remained detectable (time post-injection) (HeLa and U87MG xenograft) [h] | tumor-to-background fluorescence ratio (HeLa and U87MG xenograft; 24 h) | Compound |
| --- | --- | --- | --- | --- | --- | --- | --- | --- | --- | --- | --- |
| 5.44 × 10^9 p/s/cm^2/sr | 6.12 × 10^9 p/s/cm^2/sr | 4.82 × 10^9 p/s/cm^2/sr | 6.38 × 10^9 p/s/cm^2/sr | 6.93 × 10^9 p/s/cm^2/sr | 5.57 × 10^9 p/s/cm^2/sr | 695.00 ± 59.15 | 720.00 ± 64.21 | 24 | 72 |  | CC1(C)C(=CC=C2CCCC(C=CC3=[N+](CCCCS(=O)(=O)[O-])c4ccccc4C3(C)C)=C2Cl)N(CCCCCC(=O)NCCCNC(=O)OC2CCC=CCCC2)c2ccccc21 (stereo not drawn) [DZ-1-TCO] |
|  |  |  |  | 1.20 × 10^10 p/s/cm^2/sr |  | 737.00 ± 159.93 |  | 24 | 96 | 1303.33 ± 116.76 | CC1(C)C(=CC=C2CCCC(C=CC3=[N+](CCCCS(=O)(=O)[O-])c4ccccc4C3(C)C)=C2Cl)N(CCCCCC(=O)NCCCCC(N)C(=O)NCCOCCOCCOCCOCCNC(=O)OC2CCC=CCCC2)c2ccccc21 (stereo not drawn) [DZ-Lys-PEG4-TCO] |
